Measured values reported in patent US9376429B2, “Sodium channel blockers, preparation method thereof and use thereof” (Daewoong Pharmaceutical Co., Ltd., priority 2012, dated 2016).

Biological target: T1, sodium ion channel (Nav1.7) (Homo sapiens, UniProt Q15858)
T1 construct: host or cells: HEK293
Test: Blocking effect against sodium ion channel (Nav1.7), IonFlux16 auto patch clamp, hNav1.7 HEK293 cells
Format: cell-based
Conditions: peak current after 50 seconds treatment, eight concentrations
Protocol: In order to measure the activities of the inventive compounds as antagonists, an experiment on a blocking effect against the sodium ion channel (Nav1.7) was carried out as follows.
The hNav1.7 HEK293 cell line used was a cell line having a human sodium ion channel 1.7 gene (type IX voltage-gated sodium channel alpha subunit) in human embryonic kidney (HEK) 293 cells and was purchased from Millipore. The medium used was prepared by adding 1% 100×NEAA and 10% heat inactivated FBS to DMEM F-12 and adding 1% P/S as an antibiotic thereto. G-418 as a […] was added during subculture, and the hNav1.7 HEK293 cells were cultured to a confluence of about 80% in a T75 flask in a 5% CO2 incubator at 37° C. for 2 or 3 days and detached from the flask by treatment with 0.25% trypsin solution. Then, the cells were collected by centrifugation and used in the experiment.
The compounds prepared in the Examples of the present invention were dissolved in dimethyl sulfoxide (DMSO) and used in the experiment. 90 mM and 10 mM DMSO stock solutions were prepared from each of the compounds and diluted in an extracellular solution (4 mM KCl, 138 mM NaCl, 1 mM MgCl2, 1.8 mM CaCl2, 5.6 mM glucose, 10 mM HEPES, pH 7.45) at various concentrations so that the final concentration of each compound in DMSO was 0.3% or less.
To measure the sodium ion channel blocking effect, an IonFlux16 Auto patch clamp system (Fluxion, Inc.) and a plate for exclusive use were used. The cells were distributed in an extracellular solution (4 mM KCl, 138 mM NaCl, 1 mM MgCl2, 1.8 mM CaCl2, 5.6 mM glucose, 10 mM HEPES, pH 7.45), and then dispensed in the specified region of the plate, and each of the prepared compound samples was diluted at various concentrations, and then dispensed in the specified region of the plate.
Specifically, eight concentrations per compound were set, and percent inhibition was determined by calculating the percentage of inhibition of the peak current, generated after treating the cells with each concentration of the compound for 50 seconds, relative to the peak current generated before treatment with the compound, and the IC50 value was calculated using the Sigma plot program. In Table 2 below, the percent inhibition of Nav1.7 is rated as follows: […]

T1 sequence (Q15858 whole entry): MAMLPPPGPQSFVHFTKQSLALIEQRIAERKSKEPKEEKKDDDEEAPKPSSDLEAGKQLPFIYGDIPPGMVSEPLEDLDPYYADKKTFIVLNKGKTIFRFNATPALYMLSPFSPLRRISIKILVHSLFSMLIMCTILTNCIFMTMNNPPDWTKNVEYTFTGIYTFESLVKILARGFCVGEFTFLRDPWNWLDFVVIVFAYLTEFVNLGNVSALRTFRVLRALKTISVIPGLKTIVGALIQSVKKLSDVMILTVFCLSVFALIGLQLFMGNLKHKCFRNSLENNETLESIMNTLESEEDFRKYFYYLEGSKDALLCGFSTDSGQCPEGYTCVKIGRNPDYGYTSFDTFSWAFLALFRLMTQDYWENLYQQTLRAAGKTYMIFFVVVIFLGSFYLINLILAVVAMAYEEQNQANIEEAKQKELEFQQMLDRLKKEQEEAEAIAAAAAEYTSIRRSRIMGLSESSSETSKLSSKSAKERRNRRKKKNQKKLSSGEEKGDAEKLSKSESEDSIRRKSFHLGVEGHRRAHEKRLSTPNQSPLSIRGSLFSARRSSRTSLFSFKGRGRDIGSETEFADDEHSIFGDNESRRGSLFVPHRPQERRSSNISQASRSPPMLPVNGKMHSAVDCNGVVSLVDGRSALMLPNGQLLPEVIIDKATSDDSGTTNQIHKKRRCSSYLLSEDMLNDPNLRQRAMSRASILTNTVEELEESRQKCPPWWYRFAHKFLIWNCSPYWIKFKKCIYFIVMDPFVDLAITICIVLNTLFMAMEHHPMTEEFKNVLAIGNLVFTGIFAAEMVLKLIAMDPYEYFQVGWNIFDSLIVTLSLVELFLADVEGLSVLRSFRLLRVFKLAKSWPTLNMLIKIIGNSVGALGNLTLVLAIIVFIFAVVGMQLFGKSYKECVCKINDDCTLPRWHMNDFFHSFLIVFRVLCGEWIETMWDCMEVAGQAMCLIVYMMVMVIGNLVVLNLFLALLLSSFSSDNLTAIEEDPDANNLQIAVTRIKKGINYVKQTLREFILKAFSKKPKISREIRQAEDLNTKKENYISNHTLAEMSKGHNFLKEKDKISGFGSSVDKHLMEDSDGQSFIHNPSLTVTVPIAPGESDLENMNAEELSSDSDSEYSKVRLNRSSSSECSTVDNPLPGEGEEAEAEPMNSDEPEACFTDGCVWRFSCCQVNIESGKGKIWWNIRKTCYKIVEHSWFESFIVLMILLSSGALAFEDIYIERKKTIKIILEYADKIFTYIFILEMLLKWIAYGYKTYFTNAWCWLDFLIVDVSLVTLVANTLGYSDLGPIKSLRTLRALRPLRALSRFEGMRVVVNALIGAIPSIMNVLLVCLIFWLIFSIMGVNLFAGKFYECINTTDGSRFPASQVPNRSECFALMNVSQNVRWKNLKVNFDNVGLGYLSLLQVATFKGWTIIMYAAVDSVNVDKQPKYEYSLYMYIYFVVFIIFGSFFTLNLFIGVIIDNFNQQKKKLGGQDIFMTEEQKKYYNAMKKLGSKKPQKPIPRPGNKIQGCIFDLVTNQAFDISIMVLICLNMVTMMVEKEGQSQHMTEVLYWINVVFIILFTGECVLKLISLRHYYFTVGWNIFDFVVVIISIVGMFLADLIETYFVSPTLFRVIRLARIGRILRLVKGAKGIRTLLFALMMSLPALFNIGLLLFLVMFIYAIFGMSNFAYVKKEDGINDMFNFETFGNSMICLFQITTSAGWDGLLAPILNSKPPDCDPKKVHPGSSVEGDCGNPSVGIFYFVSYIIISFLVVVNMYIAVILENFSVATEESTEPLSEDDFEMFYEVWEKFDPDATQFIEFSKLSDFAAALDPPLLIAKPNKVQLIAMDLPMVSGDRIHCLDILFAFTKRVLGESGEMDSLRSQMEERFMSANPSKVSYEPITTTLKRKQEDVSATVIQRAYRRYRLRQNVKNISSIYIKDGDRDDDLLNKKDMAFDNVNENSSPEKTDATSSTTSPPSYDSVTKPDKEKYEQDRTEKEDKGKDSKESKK

Row | SMILES | IC50 [µM]
1 | Cn1cc(-c2cc(-c3ccccc3F)ncc2Oc2cc(F)c(S(=O)(=O)Nc3cscn3)cc2Cl)cn1 [Example 63, 5-chloro-2-fluoro-4-((6-(2-fluorophenyl)-4-(1-methyl-1H-pyrazol-4-yl)pyridin-3-yl)oxy)-N-(thiazol-4-yl)benzenesulfonamide 2,2,2-trifluoroacetate] | > 0.1
2 | Cn1cc(-c2cc(-c3ccnc(F)c3)ncc2Oc2cc(F)c(S(=O)(=O)Nc3cscn3)cc2Cl)cn1 [Example 68, 5-chloro-2-fluoro-4-((2′-fluoro-4-(1-methyl-1H-pyrazol-4-yl)-[2,4′-bipyridin]-5-yl)oxy)-N-(thiazol-4-yl)benzenesulfonamide 2,2,2-trifluoroacetate] | > 0.1
3 | Cn1cc(-c2cc(-c3cccnc3F)ncc2Oc2cc(F)c(S(=O)(=O)Nc3cscn3)cc2Cl)cn1 [Example 69, 5-chloro-2-fluoro-4-((2′-fluoro-4-(1-methyl-1H-pyrazol-4-yl)-[2,3′-bipyridin]-5-yl)oxy)-N-(thiazol-4-yl)benzenesulfonamide 2,2,2-trifluoroacetate] | > 0.1
4 | Cn1cc(-c2cc(-c3ccc(F)nc3)ncc2Oc2cc(F)c(S(=O)(=O)Nc3cscn3)cc2Cl)cn1 [Example 70, 5-chloro-2-fluoro-4-((6′-fluoro-4-(1-methyl-1H-pyrazol-4-yl)-[2,3′-bipyridin]-5-yl)oxy)-N-(thiazol-4-yl)benzenesulfonamide 2,2,2-trifluoroacetate] | > 0.1
5 | Cn1nccc1-c1cc(-c2cccc(F)c2)ncc1Oc1cc(F)c(S(=O)(=O)Nc2cscn2)cc1Cl [Example 71, 5-chloro-2-fluoro-4-((6-(3-fluorophenyl)-4-(1-methyl-1H-pyrazol-5-yl)pyridin-3-yl)oxy)-N-(thiazol-4-yl)benzenesulfonamide] | > 0.1
6 | O=S(=O)(Nc1cscn1)c1cc(Cl)c(Oc2cnc(-c3cccc(F)c3)cc2-c2ccnc(N3CCNCC3)n2)cc1F [Example 72, 5-chloro-2-fluoro-4-((6-(3-fluorophenyl)-4-(2-(piperazin-1-yl)pyrimidin-4-yl)pyridin-3-yl)oxy)-N-(thiazol-4-yl)benzenesulfonamide] | > 0.1
7 | O=S(=O)(Nc1cscn1)c1cc(Cl)c(Oc2cnc(-c3cccc(F)c3)cc2-c2cccnc2)cc1F [Example 74, 5-chloro-2-fluoro-4-((6′-(3-fluorophenyl)-[3,4′-bipyridin]-3′-yl)oxy)-N-(thiazol-4-yl)benzenesulfonamide] | > 0.1
8 | O=S(=O)(Nc1cscn1)c1cc(Cl)c(Oc2cnc(-c3ccnc(F)c3)cc2-c2cccnc2)cc1F [Example 75, 5-chloro-2-fluoro-4-((2″-fluoro-[3,4′:2′,4″-terpyridin]-5′-yl)oxy)-N-(thiazol-4-yl)benzenesulfonamide] | > 0.1
9 | O=S(=O)(Nc1cscn1)c1cc(Cl)c(Oc2cnc(-c3cccc(F)c3)cc2-c2cncnc2)cc1F [Example 76, 5-chloro-2-fluoro-4-((6-(3-fluorophenyl)-4-(pyrimidin-5-yl)pyridin-3-yl)oxy)-N-(thiazol-4-yl)benzenesulfonamide] | > 0.1
10 | O=S(=O)(Nc1cscn1)c1cc(Cl)c(Oc2cnc(-c3cccc(F)c3)cc2-c2cn[nH]c2)cc1F [Example 78, 5-chloro-2-fluoro-4-((6-(3-fluorophenyl)-4-(1H-pyrazol-4-yl)pyridin-3-yl)oxy)-N-(thiazol-4-yl)benzenesulfonamide] | > 0.1
11 | O=S(=O)(Nc1cscn1)c1cc(Cl)c(Oc2cnc(-c3ccc(F)c(F)c3)cc2-c2ccnc(F)c2)cc1F [Example 80, 5-chloro-4-((6-(3,4-difluorophenyl)-2′-fluoro-[4,4′-bipyridin]-3-yl)oxy)-2-fluoro-N-(thiazol-4-yl)benzenesulfonamide] | > 0.1
12 | O=S(=O)(Nc1cscn1)c1cc(Cl)c(Oc2cnc(-c3cc(Cl)ccc3F)cc2-c2cccnc2)cc1F [Example 81, 5-chloro-4-((6′-(5-chloro-2-fluorophenyl)-[3,4′-bipyridin]-3′-yl)oxy)-2-fluoro-N-(thiazol-4-yl)benzenesulfonamide] | > 0.1
13 | O=S(=O)(Nc1cscn1)c1cc(Cl)c(Oc2cnc(-c3ccc(F)c(F)c3)cc2-c2cccnc2)cc1F [Example 82, 5-chloro-4-((6′-(3,4-difluorophenyl)-[3,4′-bipyridin]-3′-yl)oxy)-2-fluoro-N-(thiazol-4-yl)benzenesulfonamide] | > 0.1
14 | N#Cc1cc(S(=O)(=O)Nc2cscn2)ccc1Oc1cnc(-c2cccc(F)c2)cc1-c1cn[nH]c1 [Example 83, 3-cyano-4-((6-(3-fluorophenyl)-4-(1H-pyrazol-4-yl)pyridin-3-yl)oxy)-N-(thiazol-4-yl)benzenesulfonamide] | > 0.1

Now from value to compound:

Row | IC50 [µM] | SMILES
15 | > 0.1 | O=S(=O)(Nc1cscn1)c1cc(Cl)c(Oc2cnc(-c3ccc(F)nc3)cc2-c2ccoc2)cc1F [Example 57, 5-chloro-2-fluoro-4-((6′-fluoro-4-(furan-3-yl)-[2,3′-bipyridin]-5-yl)oxy)-N-(thiazol-4-yl)benzenesulfonamide]
16 | > 0.1 | O=S(=O)(Nc1cscn1)c1cc(Cl)c(Oc2cnc(-c3ccc(F)nc3F)cc2-c2ccoc2)cc1F [Example 58, 5-chloro-4-((2′,6′-difluoro-4-(furan-3-yl)-[2,3′-bipyridin]-5-yl)oxy)-2-fluoro-N-(thiazol-4-yl)benzenesulfonamide]
17 | > 0.1 | O=S(=O)(Nc1cscn1)c1cc(Cl)c(Oc2cnc(-c3cccc(F)c3)cc2-c2ccoc2)cc1F [Example 59, 5-chloro-2-fluoro-4-((6-(3-fluorophenyl)-4-(furan-3-yl)pyridin-3-yl)oxy)-N-(thiazol-4-yl)benzenesulfonamide]
18 | > 0.1 | O=S(=O)(Nc1cscn1)c1cc(Cl)c(Oc2cnc(-c3ccccc3F)cc2-c2ccoc2)cc1F [Example 60, 5-chloro-2-fluoro-4-((6-(2-fluorophenyl)-4-(furan-3-yl)pyridin-3-yl)oxy)-N-(thiazol-4-yl)benzenesulfonamide]
19 | > 0.1 | O=S(=O)(Nc1cscn1)c1cc(Cl)c(Oc2cnc(-c3ccc(F)cc3)cc2-c2ccoc2)cc1F [Example 61, 5-chloro-2-fluoro-4-((6-(4-fluorophenyl)-4-(furan-3-yl)pyridin-3-yl)oxy)-N-(thiazol-4-yl)benzenesulfonamide]
20 | > 0.1 | O=S(=O)(Nc1cscn1)c1cc(Cl)c(Oc2cnc(-c3ccnc(F)c3)cc2-c2ccoc2)cc1F [Example 62, 5-chloro-2-fluoro-4-((2′-fluoro-4-(furan-3-yl)-[2,4′-bipyridin]-5-yl)oxy)-N-(thiazol-4-yl)benzenesulfonamide]
21 | > 0.1 | Cn1cc(-c2cc(-c3ccc(F)cc3)ncc2Oc2cc(F)c(S(=O)(=O)Nc3cscn3)cc2Cl)cn1 [Example 65, 5-chloro-2-fluoro-4-((6-(4-fluorophenyl)-4-(1-methyl-1H-pyrazol-4-yl)pyridin-3-yl)oxy)-N-(thiazol-4-yl)benzenesulfonamide 2,2,2-trifluoroacetate]
22 | > 0.1 | Cn1cc(-c2cc(-c3ccc(F)cc3F)ncc2Oc2cc(F)c(S(=O)(=O)Nc3cscn3)cc2Cl)cn1 [Example 66, 5-chloro-4-((6-(2,4-difluorophenyl)-4-(1-methyl-1H-pyrazol-4-yl)pyridin-3-yl)oxy)-2-fluoro-N-(thiazol-4-yl)benzenesulfonamide 2,2,2-trifluoroacetate]
23 | > 0.1 | Cn1cc(-c2cc(-c3ccc(F)c(F)c3)ncc2Oc2cc(F)c(S(=O)(=O)Nc3cscn3)cc2Cl)cn1 [Example 67, 5-chloro-4-((6-(3,4-difluorophenyl)-4-(1-methyl-1H-pyrazol-4-yl)pyridin-3-yl)oxy)-2-fluoro-N-(thiazol-4-yl)benzenesulfonamide 2,2,2-trifluoroacetate]
24 | > 0.1 | O=S(=O)(Nc1nccs1)c1cc(Cl)c(Oc2cnc(-c3cccc(F)c3)cc2-c2cccnc2)cc1F [Example 73, 5-chloro-2-fluoro-4-((6′-(3-fluorophenyl)-[3,4′-bipyridin]-3′-yl)oxy)-N-(thiazol-2-yl)benzenesulfonamide]
25 | > 0.1 | O=S(=O)(Nc1cscn1)c1cc(Cl)c(Oc2cnc(-c3ccnc(F)c3)cc2-c2cncnc2)cc1F [Example 77, 5-chloro-2-fluoro-4-((2′-fluoro-4-(pyrimidin-5-yl)-[2,4′-bipyridin]-5-yl)oxy)-N-(thiazol-4-yl)benzenesulfonamide]
26 | > 0.1 | O=S(=O)(Nc1cscn1)c1cc(Cl)c(Oc2cnc(-c3cccc(F)c3)cc2-c2ccnc(F)c2)cc1F [Example 79, 5-chloro-2-fluoro-4-((2′-fluoro-6-(3-fluorophenyl)-[4,4′-bipyridin]-3-yl)oxy)-N-(thiazol-4-yl)benzenesulfonamide]
